This experiment relates to HT29 xenograft, nude mice, s.c., tumor weight T/C%. Nature of the experiment: NCI In Vivo Anticancer Drug Screen. Data for tumor model HT29;CX-1 Human Adenocarcinoma (MER+) (subcutaneous) in NU/NU Swiss (nude) mice. To be noted: endpoint: optimum tumor weight change, higher = larger tumour. On the procedure: The antitumor activity of compounds was measured in mice bearing transplantable tumors. Survival or tumor size were measured and the results are expressed as the measurement made in the treated group (T) divided by the measurement made in the vehicle treated control group (C). The tumor model used in this assay is HT29;CX-1 Human Adenocarcinoma (MER+) (subcutaneous) in NU/NU Swiss (nude) mice

Where [1] appears, read: dose: 50.0 mg/kg/injection, schedule: Q04DX003 (ip), vehicle: saline.
Where [2] appears, read: dose: 3.0 mg/kg/injection, schedule: Q04DX003 (ip), vehicle: suspension in saline.
The mark [3] stands for this setting: dose: 6.0 mg/kg/injection, schedule: Q04DX003 (ip), vehicle: suspension in saline.
The mark [4] stands for this setting: dose: 12.0 mg/kg/injection, schedule: Q04DX003 (ip), vehicle: suspension in saline.

Where “and” joins values, the source holds several entries; their conditions need not be identical. Identical values can stand only once. *1 amine or outer side, *2 acyl side, *3 side chain or, on linkers, in order; H or OH if unused. Where a SMILES comes first, the peptide text is derived from it. Bridges are numbered along the chain shown (N, C = ends). Roman numbers before positions name the chains, in order. [ ]: non-standard residue; d: D form. Actinocin(9to1) = Cc1c2oc3c(C)ccc(C(=O)[*:1])c3nc-2c(C(=O)[*:2])c(N)c1=O; aThr = C[C@H](O)[C@H](N)C(=O)O; NMeV = CN[C@H](C(=O)O)C(C)C; Sar = CNCC(=O)O

T/C data for 20 molecules are collected here from PubChem BioAssay AID202 (DTP/NCI, 2004).

In the case of `CC(=O)c1c(O)c(C)c(O)c2c1OC1=CC(=O)C(C(C)=O)C(=O)C12C` (centres undefined), the T/C (in general, the result in the treated group divided by that in the control group, in per cent) runs as follows: (dose: 50.0 mg/kg/injection, schedule: Q01DX003 (ip), vehicle: sodium bicarbonate) 88 % of control; (dose: 100.0 mg/kg/injection, schedule: Q01DX003 (ip), vehicle: sodium bicarbonate) 97 % of control; (dose: 200.0 mg/kg/injection, schedule: Q01DX003 (ip), vehicle: sodium bicarbonate) 82 % of control.

In the case of `C[C@]12CC[C@@H]3c4ccc(OC(=O)Cc5ccc(N(CCCl)CCCl)cc5)cc4CC[C@H]3[C@@H]1CC[C@@H]2OC(=O)Cc1ccc(N(CCCl)CCCl)cc1`, the T/C reads like this: (dose: 150.0 mg/kg/injection, schedule: Q04DX003 (ip), vehicle: saline with Tween-80) 60 % of control; (dose: 1200.0 mg/kg/injection, schedule: Q04DX003 (ip), vehicle: saline with Tween-80) 53 % of control and 66 % of control.

In the case of `COc1cc([C@@H]2c3cc4c(c(O)c3C[C@H]3COC(=O)[C@@H]32)OCO4)cc(OC)c1O`, the T/C (dose: 3.13 mg/kg/injection, schedule: Q04DX003 (ip), vehicle: saline) is 63 % of control and the T/C (dose: 6.25 mg/kg/injection, schedule: Q04DX003 (ip), vehicle: saline) was 53 % of control.

For the molecule `O=C(O)C1(C(=O)O)CCC1.[NH2-].[NH2-].[Pt+2]`, the T/C is, setting by setting: (dose: 6.25 mg/kg/injection, schedule: Q04DX003 (ip), vehicle: dextrose) 109 % of control; (dose: 25.0 mg/kg/injection, schedule: Q04DX003 (ip), vehicle: dextrose) 69 % of control.

Regarding `O=C/C(Cl)=C(/Cl)C(=O)O`, the T/C (dose: 12.5 mg/kg/injection, schedule: Q04DX003 (ip), vehicle: saline with Tween-80) was 86 % of control.

With `CN1CCN(CCCN2c3ccccc3Sc3ccc(C(F)(F)F)cc32)CC1`, the T/C under setting [1] was 79 % of control.

In the case of `CCc1ccccc1N1CCN(C(=O)c2cc(OC)c(OC)c(OC)c2)CC1`, the T/C is, setting by setting: (dose: 25.0 mg/kg/injection, schedule: Q04DX003 (ip), vehicle: Klucel (hydroxypropylcellulose) (HPC)) 108 % of control; (dose: 50.0 mg/kg/injection, schedule: Q04DX003 (ip), vehicle: Klucel (hydroxypropylcellulose) (HPC)) 63 % of control; (dose: 100.0 mg/kg/injection, schedule: Q04DX003 (ip), vehicle: Klucel (hydroxypropylcellulose) (HPC)) 75 % of control; (dose: 200.0 mg/kg/injection, schedule: Q04DX003 (ip), vehicle: Klucel (hydroxypropylcellulose) (HPC)) 82 % of control.

Turning to `COc1cccc2c1C(=O)c1c(O)c3c(c(O)c1C2=O)C[C@@](O)(C(=O)CO)C[C@@H]3OC1CC(N)C(OC)C(C)O1` (some centres undefined), the T/C (dose: 1.56 mg/kg/injection, schedule: Q04DX003 (ip), vehicle: saline) is 80 % of control.

Turning to `C=C(C)[C@H]1Cc2c(ccc3c2O[C@@H]2COc4cc(OC)c(OC)cc4[C@@H]2C3=O)O1`, the T/C is 90 % of control under setting [2]; 77 % of control under setting [3]; 91 % of control under setting [4]; 70 % of control (dose: 12.5 mg/kg/injection, schedule: Q04DX003 (ip), vehicle: saline); 102 % of control (dose: 25.0 mg/kg/injection, schedule: Q04DX003 (ip), vehicle: saline); 50 % of control under setting [1].

As for `C[n+]1c(-c2cccc3ccccc23)c2cc(N)ccc2c2ccccc21`, the T/C (dose: 1.5 mg/kg/injection, schedule: Q04DX003 (ip), vehicle: saline) was 86 % of control.

Take `COc1cccc2c1C(=O)c1c(O)c3c(c(O)c1C2=O)C[C@@](O)(C(=O)CO)C[C@@H]3OC1CC(N)C(O)C(C)O1` (some centres undefined): where the note is “dose: 2.0 mg/kg/injection, schedule: Q04DX003 (ip), vehicle: water”, the T/C was 83 % of control.

Take `CN1N=C(N)c2cn(C3OC(COP(=O)(O)O)C(O)C3O)c3ncnc1c23` (centres undefined): the T/C (dose: 50.0 mg/kg/injection, schedule: Q04DX003 (ip), vehicle: water) is 121 % of control.

Regarding `Nc1ccc(Cl)cc1N`, the T/C is 87 % of control (dose: 400.0 mg/kg/injection, schedule: Q04DX003 (ip), vehicle: saline with Tween-80) and 98 % of control (dose: 800.0 mg/kg/injection, schedule: Q04DX003 (ip), vehicle: saline with Tween-80).

Regarding `Oc1ccc(O)cc1`, the T/C under setting [1] is 173 % of control.

As for `Cc1c(CNc2ccc(C(=O)NC(CC(=O)O)C(=O)O)cc2)ccc2nc(N)nc(N)c12` (centres undefined), the T/C (dose: 3.0 mg/kg/injection, schedule: Q04DX003 (ip), vehicle: saline with Tween-80) was 109 % of control; the T/C (dose: 6.0 mg/kg/injection, schedule: Q04DX003 (ip), vehicle: saline with Tween-80) was 153 % of control; the T/C (dose: 12.0 mg/kg/injection, schedule: Q04DX003 (ip), vehicle: saline with Tween-80) is 92 % of control.

Regarding `COc1cccc2c1C(=O)c1c(O)c3c(c(O)c1C2=O)C[C@@](O)(C(=O)CO)C[C@@H]3OC1CC(N)CC(C)O1` (some centres undefined), the T/C is, setting by setting: (dose: 0.37 mg/kg/injection, schedule: Q04DX003 (ip), vehicle: water) 63 % of control; (dose: 0.75 mg/kg/injection, schedule: Q04DX003 (ip), vehicle: water) 54 % of control; (dose: 1.5 mg/kg/injection, schedule: Q04DX003 (ip), vehicle: water) 39 % of control.

Consider `O=CC(S)CO` (centres undefined), for which the T/C by setting is: (dose: 100.0 mg/kg/injection, schedule: Q04DX003 (ip), vehicle: suspension in saline) 119 % of control; (dose: 200.0 mg/kg/injection, schedule: Q04DX003 (ip), vehicle: suspension in saline) 96 % of control; (dose: 400.0 mg/kg/injection, schedule: Q04DX003 (ip), vehicle: suspension in saline) 107 % of control.

As for `Cc1c2oc3c(C)ccc(C(=O)N[C@@H]4C(=O)N[C@H](C(C)C)C(=O)N5CCC[C@H]5C(=O)N(C)CC(=O)N(C)[C@@H](C(C)C)C(=O)O[C@H]4C)c3nc-2c(C(=O)N[C@@H]2C(=O)N[C@H](C(C)C)C(=O)N3CCC[C@H]3C(=O)N(C)CC(=O)N(C)[C@@H](C(C)C)C(=O)O[C@H]2C)c(N)c1=O` (I: [aThr][dV]P[Sar][NMeV] / II: [aThr][dV]P[Sar][NMeV]; ester I:1-I:C, II:1-II:C; linker I:N-II:N via Actinocin(9to1)), the T/C is 54 % of control (dose: 150.0 micrograms/kg/injection, schedule: Q04DX003 (ip), vehicle: saline) and 42 % of control (dose: 300.0 micrograms/kg/injection, schedule: Q04DX003 (ip), vehicle: saline).

For the molecule `O=P1(NCCCl)OCCCN1CCCl` (centres undefined), the T/C (dose: 25.0 mg/kg/injection, schedule: Q04DX003 (ip), vehicle: suspension in saline) is 78 % of control and the T/C (dose: 50.0 mg/kg/injection, schedule: Q04DX003 (ip), vehicle: suspension in saline) was 108 % of control.

Take `CC(C)CCCCCCCCCCCCC(=O)NCC(=O)NC1C(O)C(O)C(Nc2ncnc3nc[nH]c23)OC1C(O)CO` (centres undefined): the T/C runs as follows: under setting [2], 108 % of control and 110 % of control; under setting [3], 67 % of control and 79 % of control; under setting [4], 16 % of control and 40 % of control.
